# Key:
# [1] = test system: H1N1 influenza A virus strain A/FM/1/47; test: Anti-influenza virus activity in vitro (inhibition of virus replication in MDCK cells); type: cell-based; conditions: 72 h, read-out: EC50 for in vitro inhibition of replication of H1N1 (FM1) influenza virus
# [2] = PK study in rats, single oral gavage; type: in vivo; conditions: SD rats, single oral gavage 3.0 mg/kg
# Method: SD rats were administered in a single oral gavage administration with different groups of drugs, including compound I-1-1-2, compound I-1-1-3, compound I-1-1-6, compound I-20, compound II-5, and Baloxavir Marboxil. After administration, plasma at different time points were collected to detect the drug content, and the pharmacokinetic parameters of different groups of drugs in SD rats were calculated and compared.
# 48 SD rats, weighing 180 g-220 g, with half male and half female, were randomly assigned to 6 groups according to their body weight, with 8 rats in each group. Animal grouping information was as follows:
# (§1) After SD rats were randomly assigned to groups, they were fasted for more than 12 hours before administration and were allowed to drink water freely. Drinking water was prohibited from 1 hour before administration to 1 hour after administration. Food was provided 4 hours after administration. Each group was administered with a single oral gavage dose of 3.0 mg/kg. Approximately 0.2 mL of jugular vein blood was collected at 0 h before administration and 5 min, 10 min, 15 min, 30 min, 1 h, 2 h, 4 h, 6 h, 10 h, 24 h and 30 h after administration, and placed in EDTA-K2 anticoagulation tubes.
# (§2) After the whole blood was collected, the plasma was separated by centrifugation at 4000 rpm for 10 min at 4° C., and then stored in a refrigerator at −80° C. for testing. The plasma drug concentration of samples in each group was determined by LC-MS/MS.
# PK parameters were calculated using a non-compartmental model in Phoenix winnonlin 8.0. Data analysis included Cmax, Tmax, AUC0-t, AUC0-∞∞, t1/2 and other pharmacokinetic parameters.
# [3] = PK study in cynomolgus monkeys, single oral gavage; type: in vivo; conditions: single oral gavage 5.0 mg/kg
# Method: Cynomolgus monkeys were administered with a single oral gavage with different groups of drugs, including compound I-1-1-2, compound I-1-1-3 and Baloxavir Marboxil. After administration, plasma at different time points were collected to detect the drug content, and the pharmacokinetic parameters of different groups of drugs in cynomolgus monkeys were calculated and compared.
# 24 cynomolgus monkeys, aged 3-5 years old and weighing 3 kg-7 kg, with half male and half female, were used and randomly assigned to 3 groups according to their body weight, with 8 monkeys in each group. Animal grouping information was as follows:
# as §1, with “After cynomolgus monkeys” for “After SD rats”, “of 5.0” for “of 3.0”, “Approximately 1.0” for “Approximately 0.2”, “h, 8 h, 12” for “h, 10”, “24 h, and 48” for “24”, “h (D2)” for “h and 30 h”
# as §2
# PK parameters were calculated using non-compartmental model in a Phoenix winnonlin 8.0. Data analysis included Cmax, Tmax, AUC0-t, AUC0-∞∞, t1/2 and other pharmacokinetic parameters.
SMILES,EC50 [1],Bioavailability (Cmax and AUC0-t) compared with Compound I-20 and Compound II-5 groups [2],also measured
CC(=O)O[C@@H](C)Oc1c2n(ccc1=O)N([C@@H]1c3ccccc3SCc3c1ccc(F)c3F)[C@@H]1COCCN1C2=O [Compound I-1-1-1],0.32 µg/mL,–,–
"COC(=O)OCOc1c2n(ccc1=O)N([C@@H]1c3ccccc3SCc3c1ccc(F)c3F)[C@@H]1COCCN1C2=O [Baloxavir Marboxil, reference compound]",0.32 µg/mL,significantly improved,–
"CC(=O)OCOc1c2n(ccc1=O)N([C@@H]1c3ccccc3SCc3c1ccc(F)c3F)[C@@H]1COCCN1C2=O [Compound II-5, reference compound]",0.32 µg/mL,–,–
CC(=O)O[C@H](C)Oc1c2n(ccc1=O)N([C@@H]1c3ccccc3SCc3c1ccc(F)c3F)[C@@H]1COCCN1C2=O [Compound I-1-1-2],0.032 µg/mL,significantly improved,Bioavailability (Cmax and AUC0-t) compared with Baloxavir Marboxil group [3]: significantly improved; Exposure rank among groups [3]: highest exposure; Half-life rank among groups [3]: longest half-life; Bioavailability (Cmax and AUC0-t) compared with Baloxavir Marboxil group [2]: significantly improved; Half-life (t1/2) rank among groups [2]: longest half-life
CC(=O)OC(C)Oc1c2n(ccc1=O)N([C@@H]1c3ccccc3[Se]Cc3c1ccc(F)c3F)[C@@H]1COCCN1C2=O (some centres unmarked) [Compound I-1-1-6],0.32 µg/mL,–,–
"[2H]C([2H])([2H])C(=O)OC(C)Oc1c2n(ccc1=O)N([C@@H]1c3ccccc3SCc3c1ccc(F)c3F)[C@@H]1COCCN1C2=O (some centres unmarked) [Compound I-20, reference compound]",0.32 µg/mL,–,–
CC(=O)OC(C)Oc1c2n(ccc1=O)N([C@@H]1c3ccccc3SCc3c1ccc(F)c3F)[C@@H]1COCCN1C2=O (some centres unmarked) [Compound I-1-1-3],0.32 µg/mL,significantly improved,Bioavailability (Cmax and AUC0-t) compared with Baloxavir Marboxil group [3]: significantly improved; Bioavailability (Cmax and AUC0-t) compared with Baloxavir Marboxil group [2]: significantly improved

# Source: patent publication US20260272943A1, “Acyl Ethyl Ester Polycyclic Compound, and Pharmaceutical Composition and Use Thereof” (priority 2023, published 2026)
